Legend:
ERβ = ERβ (Homo sapiens, UniProt Q92731); test: Transient transfection transactivation assay, rat oxytocin promoter-luciferase reporter in CHO cells, ERβ
ERα = target: T1, ERα (Homo sapiens, UniProt P03372); test: Transactivation assay in stably transfected CHO cell line expressing ERα with rat oxytocin-luciferase reporter; assay type: cell-based; settings: stably transfected CHO cell lines ERα vs ERβ; agonist curves FIGS. 5A, 5B
T1 construct: expressed in transfected cells
T1 sequence (P03372 whole entry): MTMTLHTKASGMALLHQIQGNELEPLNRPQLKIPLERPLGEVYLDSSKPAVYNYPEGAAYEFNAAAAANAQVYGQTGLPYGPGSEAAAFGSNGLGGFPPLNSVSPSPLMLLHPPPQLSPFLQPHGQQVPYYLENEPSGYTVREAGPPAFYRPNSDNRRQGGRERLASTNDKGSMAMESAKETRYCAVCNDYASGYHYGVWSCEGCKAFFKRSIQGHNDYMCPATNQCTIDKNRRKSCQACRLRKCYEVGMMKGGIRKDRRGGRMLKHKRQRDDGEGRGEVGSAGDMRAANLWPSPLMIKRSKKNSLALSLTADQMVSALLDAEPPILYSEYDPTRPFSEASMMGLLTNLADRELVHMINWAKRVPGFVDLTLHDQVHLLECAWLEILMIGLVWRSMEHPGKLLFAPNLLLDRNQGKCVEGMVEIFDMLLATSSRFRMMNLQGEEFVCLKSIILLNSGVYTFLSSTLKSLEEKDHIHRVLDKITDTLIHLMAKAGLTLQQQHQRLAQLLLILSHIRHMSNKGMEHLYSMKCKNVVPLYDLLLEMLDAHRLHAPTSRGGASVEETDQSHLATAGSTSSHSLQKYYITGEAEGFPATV

ERβ, sequence (Q92731 whole entry): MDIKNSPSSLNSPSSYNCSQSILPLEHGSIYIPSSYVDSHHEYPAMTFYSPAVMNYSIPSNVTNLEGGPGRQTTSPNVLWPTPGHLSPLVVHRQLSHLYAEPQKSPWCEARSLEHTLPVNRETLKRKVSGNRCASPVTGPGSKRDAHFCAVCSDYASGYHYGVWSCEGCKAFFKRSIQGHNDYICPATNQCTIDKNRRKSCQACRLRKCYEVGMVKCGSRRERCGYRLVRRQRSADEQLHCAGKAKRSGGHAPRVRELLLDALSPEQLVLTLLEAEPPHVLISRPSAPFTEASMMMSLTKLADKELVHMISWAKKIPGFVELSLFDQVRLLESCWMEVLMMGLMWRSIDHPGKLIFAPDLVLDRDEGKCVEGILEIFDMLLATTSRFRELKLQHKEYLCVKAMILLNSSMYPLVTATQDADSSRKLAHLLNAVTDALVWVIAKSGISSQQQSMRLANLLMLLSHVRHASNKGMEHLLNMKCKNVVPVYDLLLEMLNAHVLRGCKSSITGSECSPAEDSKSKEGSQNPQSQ

| stimulation of luciferase activity with ERβ (ERβ; 10^−9 mol/L 17β-estradiol, transient CHO, normalised for β-galactosidase, FIG. 3) [fold] | increase in luciferase activity as compared to untreated cells (ERβ; CHO cells transiently transfected with ERβ expression vector and reporter, hormones 10^−7 mol/L, FIG. 2) [fold] | Structure (SMILES) | concentration for half-maximal transactivation, ERα as compared to ERβ (ERα) |
| --- | --- | --- | --- |
| 7 | 3 to 4 | C[C@]12CC[C@@H]3c4ccc(O)cc4CC[C@H]3[C@@H]1CC[C@@H]2O [17β-estradiol] |  |
|  |  | C#C[C@]1(O)CC[C@H]2[C@@H]3[C@H](C)CC4=C(CC[C@@H](O)C4)[C@H]3CC[C@@]21C [Org4094] | much more pronounced |
